Data published in patent publication US4264625A, “Pesticidal unsymmetrical bis-arylcarbamate sulfide compounds” (Union Carbide Corporation, priority 1978, dated 1981).

Experiments:
Type in all cases: in vivo
[1] = tested on: Mexican bean beetle (Epilachna varivestis, Muls.); test: Mexican Bean Beetle Leaf Spray Test; design: key: A: excellent control; B: partial control; C: no control; details: 500 ppm leaf spray, fourth instar larvae, three days, mortality rating
Description: (§1) Suspensions of the test compounds were prepared by dissolving one gram of compound in 50 milliliters of acetone in which had been dissolved 0.1 gram (10 percent of the weight of compound) of an alkylphenoxy polyethoxyethanol surfactant, as an emulsifying or dispersing agent. The resulting solution was mixed into 150 milliliters of water to give roughly 200 milliliters of a suspension containing the compound in finely divided form. The thus-prepared stock suspension contained 0.5 percent by weight of compound. The test concentrations in parts per million by weight employed in the tests described hereinbelow were obtained by appropriate dilutions of the stock suspension with water. The test procedures were as follows:
Mexican Bean Beetle Leaf Spray Test
Fourth instar larvae of the Mexican bean beetle (Epilachna varivestis, Muls.), reared on Tendergreen bean plants at a temperature of 80°±5° F. and 50±5 percent relative humidity, were the test insects.
The test compounds were formulated by diluting the stock suspension with water to give a suspension containing 500 parts of test compound per million parts of final formulation. Potted Tendergreen bean plants of standard height and age were placed on a revolving turntable and sprayed with 100-110 milliliters of test compound formulation by use of a DeVilbiss spray gun set at 10 psig air pressure. This application, which lasted 25 seconds, was sufficient to wet plants to run-off. As a control, 100-110 milliliters of a water-acetone-emulsifier solution containing no test compound were also sprayed on infested plants. When dry, the paired leaves were separated and each was placed in a 9 centimeter Petri dish lined with moistened filter paper. Five randomly selected larvae were introduced into each dish, and the dishes were closed. The closed dishes were labeled and held at a temperature of 80°±5° F. for three days. Although the larvae could easily consume the leaf within 24 to 48 hours, no more food was added. Larvae which were unable to move the length of the body, even upon stimulation, were considered dead.
(§2) In these tests the pesticidal activity of the compounds against aphid, mite, Southern Armyworm, Bean Beetle and house fly was rated as follows: […]

[2] = tested on: southern armyworm (Prodenia eridania, (Cram.)); test: Southern Armyworm Leaf Spray Test; design: key: A: excellent control; B: partial control; C: no control; details: 500 ppm leaf spray, larvae, three days, mortality rating
Description: as §1
Southern Armyworm Leaf Spray Test
Larvae of the southern armyworm (Prodenia eridania, (Cram.)), reared on Tendergreen bean plants at a temperature of 80°±5° F. and a relative humidity of 50±5 percent, constituted the test insects.
The test compounds were formulated by diluting the stock suspension with water to give a suspension containing 500 parts of test compound per million parts of final formulation. Potted Tendergreen bean plants of standard height and age were placed on a revolving turntable and sprayed with 100-110 milliliters of test compound formulation by use of a DeVilbiss spray gun set at 10 psig air pressure. This application, which lasted 25 seconds, was sufficient to wet plants to run-off. As a control, 100-110 milliliters of a water-acetone-emulsifier solution containing no test compound were also sprayed on infested plants. When dry, the paired leaves were separated and each one was placed in a 9 centimeter Petri dish lined with moistened filter paper. Five randomly selected larvae were introduced into each dish and the dishes were closed. The closed dishes were labeled and held at 80°-85° F. for three days. Although the larvae could easily consume the whole leaf within twenty-four hours, no more food was added. Larvae which were unable to move the length of the body, even upon stimulation by prodding, were considered dead. Percent mortality was recorded for various concentration levels.
as §2

[3] = tested on: two-spotted mite (Tetranychus urticae Koch); test: Mite Foliage Spray Test; design: key: A: excellent control; B: partial control; C: no control; details: 500 ppm foliage spray, six days, mortality rating
Description: as §1
Adults and nymphal stages of the two-spotted mite (Tetranychus urticae Koch), reared on Tendergreen bean plants at 80±5 percent relative humidity, were the test organisms. Infested leaves from a stock culture were placed on the primary leaves of two bean plants six to eight inches in height, growing in a two-and-a-half inch clay pot. 150-200 Mites, a sufficient number for testing, transferred from the excised leaves to the fresh plants in a period of twenty four hours. Following the twenty four hour transfer period, the excised leaves were removed from the infested plants. The test compounds were formulated by diluting the stock suspension with water to give a suspension containing 500 parts of test compound per million parts of final formulation. The potted plants (one pot per compound) were placed on a revolving turntable and sprayed with 100-110 milliliters of test compound formulation by use of a DeVilbiss spray gun set at 40 psig. air pressure. This application, which lasted 25 seconds, was sufficient to wet the plants to run-off. As a control, 100-110 milliliters of a water solution containing acetone and emulsifier in the same concentrations as the test compound formulation, but containing no test compound, were also sprayed on infested plants. The sprayed plants were held at 80±5 percent relative humidity for six days, after which a mortality count of motile forms was made. Microscopic examination for motile forms was made on the leaves of the test plants. Any individual which was capable of locomotion upon prodding was considered living.
as §2

Tomato = details: 2500 ppm spray, ten days, rating 1-5
Description: (§3) POST-EMERGENT HERBICIDAL TEST
(§4) Experiments were also conducted to determine the phytotoxicity of representative compositions with respect to healthy fresh plants. Solutions of the compounds were prepared as described above to provide a concentration of 2500 parts per million of the test compound. The test plants were sprayed in accordance with the procedure described above for the Mite Foliage Spray Test so as to deliver approximately 100 milliliters of test solution to the leaves of each plant tested. The sprayed plants and controls were set aside for approximately one hour to allow the solutions to dry and were then placed in the greenhouse. After ten days the plants were visually inspected to determine the extent of foliage injury. A rating of 1 indicates no perceptible injury; 5 indicates the plant was dead and ratings of 2, 3 and 4 indicate intermediate degrees of injury based upon the number and extent to which leaves were injured.

Bean = details: 2500 ppm spray, ten days, rating 1-5
Description: as §3, §4

Corn = details: 2500 ppm spray, ten days, rating 1-5
Description: as §3, §4

Soybean = details: 2500 ppm spray, ten days, rating 1-5
Description: as §3, §4

Cotton = details: 2500 ppm spray, ten days, rating 1-5
Description: as §3, §4

[4] = tested on: house flies (Musca domestica, L.); test: Fly Bait Test; design: key: A: excellent control; B: partial control; C: no control; details: 500 ppm in sugar-solution bait, 24 hours, mortality rating
Description: as §1
Four to six day old adult house flies (Musca domestica, L.) reared according to the specifications of the Chemical Specialties Manufacturing Association (Blue Book, McNair-Dorland Co., N.Y. 1954; pages 243-244, 261) under controlled conditions of 80°±5° F. and 50±5 percent relative humidity, were the test insects. The flies were immobilized by anesthetizing with carbon dioxide and twenty five immobilized individuals, males and females, were transferred to a cage consisting of a standard food strainer about five inches in diameter which was inverted over a wrapping-paper-covered surface. The test compounds were formulated by diluting the stock suspension with a 10 percent (by weight) sugar solution to give a suspension containing 500 parts of test compound per million parts of final formulation, by weight. Ten milliliters of the test formulation were added to a souffle cup containing a one-inch square of an absorbent cotton pad. This bait cup was introduced and centered on the blotting paper under the food strainer prior to admitting the anesthetized flies. The caged flies were allowed to feed on the bait for twenty four hours, at a temperature of 80°±5° F. and the relative humidity of 50±5 percent.
as §2

[5] = tested on: bean aphid (Aphis fabae Scop.); test: Bean Aphid Foliage Spray Test; design: key: A: excellent control; B: partial control; C: no control; details: 500 ppm foliage spray, 24 hours, mortality rating
Description: as §1
Bean Aphid Foliage Spray Test
Adults and nymphal stages of the bean aphid (Aphis fabae Scop.) reared on potted dwarf nasturtium plants at 65°-70° F. and 50-70 percent relative humidity, constituted the test insects. For testing purposes, the number of aphids per pot was standardized to 100-150 by trimming plants containing excess aphids.
The test compounds were formulated by diluting the stock suspension with water to give a suspension containing 500 parts of test compound per million parts of final formulation.
The potted plants (one pot per compound tested) infested with 100-150 aphids, were placed on a revolving turntable and sprayed with 100-110 milliliters of test compound formulation by use of a DeVilbiss spray gun set at 40 psig. air pressure. This application, which lasted 25 seconds, was sufficient to wet the plants to run-off. As a control, 100-110 milliliters of a water-acetone-emulsifier solution containing no test compound were also sprayed on infested plants. After spraying, the pots were placed on their sides on a sheet of white standard mimeograph paper which had been previously ruled to facilitate counting. Temperature and humidity in the test room during the 24 hour holding period were 65°-70° F. and 50-70 percent, respectively. Aphids which fell onto the paper and were unable to remain standing after being uprighted were considered dead. Aphids remaining on the plants were observed closely for movement and those which were unable to move the length of the body upon stimulation by prodding were considered dead. Percent mortality was recorded for various concentration levels.
as §2

Compound | Pesticidal Activity, Mexican Bean Beetle [1] | Pesticidal Activity, Southern Armyworm [2] | Pesticidal Activity, Mite [3] | Phytotoxicity, Tomato (Tomato) | Phytotoxicity, Bean (Bean) | Phytotoxicity, Corn (Corn) | Phytotoxicity, Soybean (Soybean) | Phytotoxicity, Cotton (Cotton) | Pesticidal Activity, House fly [4] | Pesticidal Activity, Aphid [5]
Cc1cc(OC(=O)N(C)SN(C)C(=O)Oc2ccc(N=CN(C)C)c(C)c2)ccc1N=CN(C)C [drawing 39] | A | A | A | 1 | 2 | 1 | 2 | 1 | A | A
CN(SN(C)C(=O)Oc1ccc(Oc2ccccc2)cc1)C(=O)Oc1ccc(Oc2ccccc2)cc1 | C | C | C | 1 | 1 | 1 | 1 | 1 | C | C
CN(SN(C)C(=O)Oc1cccc2c1OC(C)(C)C2)C(=O)Oc1ccccc1C1SCCS1 | A | A | B | 1 | 1 | 1 | 1 | 1 | A | A
Cc1cc(OC(=O)N(C)SN(C)C(=O)Oc2ccc(N=CN(C)C)c(C)c2)ccc1N=CN(C)C [drawing 41] | A | A | A | 1 | 1 | 1 | 2 | 1 | A | A
Cc1cc(OC(=O)N(C)SN(C)C(=O)Oc2ccc(N=CN(C)C)c(C)c2)ccc1N=CN(C)C [drawing 37] | A | A | A | 1 | 1 | 1 | 1 | 1 | A | A
CN(SN(C)C(=O)Oc1ccccc1C1SCCS1)C(=O)Oc1ccccc1C1SCCS1 | A | A | C | 1 | 1 | 1 | 1 | 1 | A | A
COC(=O)Nc1ccc(OC(=O)N(C)SN(C)C(=O)Oc2ccc(NC(=O)OC)c(C(C)C)c2)cc1C(C)C | A | A | C | 1 | 1 | 1 | 1 | 1 | C | C
CCCCCCCCCCCCc1ccc(OC(=O)N(C)SN(C)C(=O)Oc2cccc3ccccc23)cc1 | A | A | C | 1 | 1 | 1 | 1 | 1 | C | C
CCCCCCCCCc1ccc(OC(=O)N(C)SN(C)C(=O)Oc2cccc3ccccc23)cc1 | A | A | C | 1 | 1 | 1 | 1 | 1 | C | C
C#CCOc1ccccc1OC(=O)N(C)SN(C)C(=O)Oc1cccc2ccccc12 | A | A | C | 1 | 1 | 1 | 2 | 1 | A | A
